Our source for the Ki values is US20130053243A1, “PLANTS HAVING INCREASED TOLERANCE TO HERBICIDES” (BASF SE, priority 2010, published 2013).

Format in all cases: biochemical
In assay [1] the target is T1, Arabidopsis HPPD variant L385V (Arabidopsis thaliana, UniProt P93836, L385V).
T1 construct: His6 (N); made in house; host or cells: E. coli BL21 (DE3)
The experiment in a line: HPPD activity assay, mutant enzyme. How it is done:
(§1) HPPD produces homogentisic acid and CO2 from 4-hydroxyphenylpyruvate (4-HPP) and O2. The activity assay for HPPD is based on the analysis of homogentisic acid by reversed phase HPLC.
(§2) The assay mixture can contain 150 mM potassium phosphate buffer pH 7.0, 50 mM L-ascorbic acid, 1 μM FeSO4 and 7 μg of purified enzyme in a total volume of 1 ml.
(§3) Inhibitors are dissolved in DMSO (dimethylsulfoxide) to a concentration of 20 mM or 0.5 mM, respectively. From this stock solution serial five-fold dilutions are prepared in DMSO, which are used in the assay. The respective inhibitor solution accounts for 1% of the assay volume. Thus, final inhibitor concentrations range from 200 μM to 2.5 nM or from 5 μM to 63 pM, respectively.
(§4) After a preincubation of 30 min the reaction is started by adding 4-HPP to a final concentration of 0.1 mM. The reaction is allowed to proceed for 120 min at room temperature. The reaction is stopped by addition of 100 μl of 4.5 M phosphoric acid.
(§5) The sample is extracted on an Oasis® HLB cartridge 3 cc/60 mg (Waters) that was preequilibrated with 63 mM phosphoric acid. L-ascorbic acid is washed out with 3 ml of 63 mM phosphoric acid. Homogentisate is eluted with 1 ml of a 1:1 mixture of 63 mM phosphoric acid and methanol (w/w).
(§6) 10 μl of the eluate is analyzed by reversed phase HPLC on a Symmetry® C18 column (particle size 3.5 μm, dimensions 4.6×100 mm; Waters) using 5 mM H3PO4/15% ethanol (w/w) as an eluent.
(§7) Homogentisic acid is detected electrochemically and quantified by measuring peak areas (Empower software; Waters).
(§8) Activities are normalized by setting the uninhibited enzyme activity to 100%. IC50 values are calculated using non-linear regression.
(§9) The assay mixture can contain 150 mM potassium phosphate buffer pH 7.0, 50 mM L-ascorbic acid, 100 μM Catalase (Sigma-Aldrich), 1 μM FeSO4 and 0.2 units of purified HPPD enzyme in a total volume of 505 μl. 1 unit is defined as the amount of enzyme that is required to produce 1 nmol of HGA per minute at 20° C.
(§10) After a preincubation of 30 min the reaction is started by adding 4-HPP to a final concentration of 0.05 mM. The reaction is allowed to proceed for 45 min at room temperature. The reaction is stopped by the addition of 50 μl of 4.5 M phosphoric acid. The sample is filtered using a […] pore size PVDF filtration device.
(§11) 5 μl of the cleared sample is analyzed on an Atlantis T3 column (particle size 3 μm, dimensions 3×50 mm; Waters) by isocratic elution using 90% 10 mM NaH2PO4 pH 2.2, 10% methanol (v/v).
(§12) HGA is detected electrochemically at 750 mV (mode: DC; polarity: positive) and quantified by integrating peak areas (Empower software; Waters).
(§13) Inhibitors are dissolved in DMSO (dimethylsulfoxide) to a concentration of 0.5 mM. From this stock solution serial five-fold dilutions are prepared in DMSO, which are used in the assay. The respective inhibitor solution accounts for 1% of the assay volume. Thus, final inhibitor concentrations range from 5 μM to 320 pM, respectively. Activities are normalized by setting the uninhibited enzyme activity to 100%. IC50 values are calculated using non-linear regression.
(§14) Purified, mutant HPPD enzymes are obtained by the methods described above. Dose response and kinetic measurements are carried out using the described HPPD activity assay. Apparent michaelis constants (Km) and maximal reaction velocities (Vmax) are calculated by non-linear regression with the software GraphPad Prism 5 (GraphPad Software, La Jolla, USA) using a substrate inhibition model. Apparent kcat values are calculated from Vmax assuming 100% purity of the enzyme preparation. Weighted means (by standard error) of Km and IC50 values are calculated from at least three independent experiments. The Cheng-Prusoff equation for competitive inhibition (Cheng, Y. C.; Prusoff, W. H. Biochem Pharmacol 1973, 22, 3099-3108) is used to calculate dissociation constants (Ki). Examples of the data obtained are depicted in Table 13.

The target in assay [2] is T2, Arabidopsis HPPD variant M335Q (Arabidopsis thaliana, UniProt P93836, M335Q).
T2 construct: His6 (N); made in house; host or cells: E. coli BL21 (DE3)
In words: HPPD activity assay, mutant enzyme. How it is done:
as §1, §2, §3, §4, §5, §6, §7, §8, §9, §10, §11, §12, §13, §14

Assay [3] deals with T3, Arabidopsis HPPD variant M335N (Arabidopsis thaliana, UniProt P93836, M335N).
T3 construct: His6 (N); made in house; host or cells: E. coli BL21 (DE3)
The experiment in a line: HPPD activity assay, mutant enzyme. The procedure: as §1, §2, §3, §4, §5, §6, §7, §8, §9, §10, §11, §12, §13, §14

In assay [4] the target is T4, Arabidopsis HPPD variant P336A E363Q (Arabidopsis thaliana, UniProt P93836, E363Q/P336A).
T4 construct: His6 (N); made in house; host or cells: E. coli BL21 (DE3)
In words: HPPD activity assay, mutant enzyme. The procedure:
as §1, §2, §3, §4, §5, §6, §7, §8, §9, §10, §11, §12, §13, §14

Assay [5] concerns the target T5, Arabidopsis HPPD variant I393L (Arabidopsis thaliana, UniProt P93836, I393L).
T5 construct: His6 (N); made in house; host or cells: E. coli BL21 (DE3)
The experiment in a line: HPPD activity assay, mutant enzyme. How it is done:
as §1, §2, §3, §4, §5, §6, §7, §8, §9, §10, §11, §12, §13, §14

Assay [6] addresses Chlamydomonas HPPD2 (Chlamydomonas reinhardtii, UniProt A0A2K3DET5). The experiment in a line: HPPD activity assay, wildtype enzyme. To be noted: calculated from IC50 with Cheng-Prusoff equation, read-out: dissociation constant Ki. The procedure: as §1, §2
Inhibitors are dissolved in DMSO (dimethylsulfoxide) to a concentration of 20 mM or 0.5 mM, respectively. From this stock solution serial five-fold dilutions are prepared in DMSO, which are used in the assay. The respective inhibitor solution accounts for 1% of the assay volume. […]
as §6, §7
Activities are normalized by setting the uninhibited enzyme activity to 100%. IC50 values are calculated using non-linear regression. […]
as §11
HGA is detected electrochemically at 750 mV (mode: DC; polarity: positive) and quantified by integrating peak areas (Empower software; Waters). […]

T5 sequence (P93836 whole entry I393L): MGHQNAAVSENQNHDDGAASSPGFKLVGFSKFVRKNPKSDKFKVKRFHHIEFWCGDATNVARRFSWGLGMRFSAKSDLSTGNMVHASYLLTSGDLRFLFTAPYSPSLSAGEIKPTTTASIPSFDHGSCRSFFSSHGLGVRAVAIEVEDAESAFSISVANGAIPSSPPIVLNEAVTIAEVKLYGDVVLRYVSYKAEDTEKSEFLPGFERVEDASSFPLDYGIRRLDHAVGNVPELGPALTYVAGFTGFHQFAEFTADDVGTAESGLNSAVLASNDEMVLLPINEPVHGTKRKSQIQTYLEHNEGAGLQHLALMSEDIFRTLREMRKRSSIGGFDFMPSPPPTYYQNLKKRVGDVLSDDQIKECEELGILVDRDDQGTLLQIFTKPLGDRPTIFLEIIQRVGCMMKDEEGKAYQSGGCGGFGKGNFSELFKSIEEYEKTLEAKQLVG
T3 sequence (P93836 whole entry M335N): as the sequence (P93836 whole entry I393L) above, with M335N, L393I counted along it
T4 sequence (P93836 whole entry P336A/E363Q): as the sequence (P93836 whole entry I393L) above, with P336A, E363Q, L393I counted along it
Chain of Chlamydomonas HPPD2 (A0A2K3DET5 entry or part of it): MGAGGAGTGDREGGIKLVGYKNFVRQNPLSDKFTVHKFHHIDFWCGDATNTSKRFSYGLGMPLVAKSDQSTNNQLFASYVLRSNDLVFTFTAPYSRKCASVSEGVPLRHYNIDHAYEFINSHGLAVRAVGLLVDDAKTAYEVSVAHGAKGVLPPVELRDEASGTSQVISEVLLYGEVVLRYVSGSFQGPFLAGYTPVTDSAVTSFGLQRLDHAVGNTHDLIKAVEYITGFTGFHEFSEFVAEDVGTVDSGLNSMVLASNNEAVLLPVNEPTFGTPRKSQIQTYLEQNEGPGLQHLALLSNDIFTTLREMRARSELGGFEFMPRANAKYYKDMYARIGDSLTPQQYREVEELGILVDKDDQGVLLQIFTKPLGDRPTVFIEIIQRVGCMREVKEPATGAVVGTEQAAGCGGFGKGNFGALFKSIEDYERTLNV
T1 sequence (P93836 whole entry L385V): as the sequence (P93836 whole entry I393L) above, with L385V, L393I counted along it
T2 sequence (P93836 whole entry M335Q): as the sequence (P93836 whole entry I393L) above, with M335Q, L393I counted along it

Turning to `CC1=NOC(c2c(Cl)ccc(C3=C(O)c4ncccc4N(CC(F)F)S3(=O)=O)c2Cl)C1` (stereo not drawn) [Inhibitor 1, 3-[2,4-dichloro-3-(3-methyl-4,5-dihydroisoxazol-5-yl)phenyl]-1-(2,2-difluoroethyl)-2,2-dioxo-pyrido[3,2-c]thiazin-4-ol], the Ki (as a rule, the equilibrium dissociation constant of an inhibitor or competing ligand from its target) in assay [1] was 19 nM; in assay [2], 24 nM; in assay [3], 20 nM; in assay [4], 13 nM; in assay [5], 21 nM; in assay [6] it was 8 nM.
